{
  "source": "patent US9732091B2",
  "about": "“Tryptophanol-derived oxazoloisoindolinones: small-molecule P53 activators” (UNIVERSIDADE DO PORTO, priority 2013, dated 2017)",
  "key": {"[1]": {"system": "HCT116 p53^+/+", "experiment": "SRB growth inhibition assay in HCT116 p53^+/+ colon carcinoma cells", "type": "cell-based, human", "description": "Tumor cells were plated at 5.0×10^3 cells/well in 96-well plates and incubated for 24 hours. Cells were then exposed to serial dilutions of SLMP53-1, CP-31398 or PRIMA-1 (from 1.85 to 150 μM). The effect of the compounds was analyzed following 48 hours incubation, using the sulforhodamine B (SRB) assay. The solvent DMSO corresponding to the maximum concentration used in these assays (0.025%) was included as control. The GI50 value, the concentration of compound that causes 50% growth inhibition, was calculated for the tested compounds. Results are the mean±S.E.M. of three independent experiments."}, "[2]": {"system": "HCT116 p53^+/+", "experiment": "Western blot of p53 and p53-target proteins, PARP cleavage, HCT116 p53^+/+", "type": "cell-based, human", "description": "FIG. 2 illustrates that SLMP53-1 increases the levels of proteins encoded by p53 target genes (MDM2, p21, PUMA and BAX), and leads to PARP cleavage in colon carcinoma cells with wt p53 (HCT116 p53^+/+), but not in colon carcinoma cells without wt p53 (HCT116 p53^−/−). Western blot analysis was performed for human colon carcinoma cells after 16 (B, D, E) and 24 (A, C, F) hours treatment with 15.5 μM of SLMP53-1, 135 nM doxorubicin (DOXO; positive control) or DMSO only. The protein expression levels were evaluated by quantification of Western Blot band intensity (with Bio-Profile Bio-1D++ software) using GAPDH as loading control."}, "[3]": {"system": "HCT116 p53^+/+ cells", "experiment": "cell cycle analysis by flow cytometry (propidium iodide), HCT116 p53^+/+", "type": "cell-based, human", "settings": "double GI50, 24 hours", "description": "FIG. 3 illustrates the effect of SLMP53-1 on cell cycle progression of HCT116 p53^+/+ cells. Cell cycle phases were analyzed by flow cytometry using propidium iodide and quantified using ModFit LT software (Verity Software House Inc., Topsham, USA). Effect of compounds (double GI50) was analyzed after 24 hours treatment. Histograms represent one of two independent experiments; quantification of cell cycle phases represents the mean±S.E.M. of two independent experiments."}, "[4]": {"system": "HCT116 p53^+/+ cells", "experiment": "sensitization to etoposide and doxorubicin, SRB assay, HCT116 p53^+/+", "type": "cell-based, human", "description": "FIG. 5 illustrates that SLMP53-1 sensitizes colon carcinoma tumor cells with wt p53 (HCT116 p53^+/+) to the effects of etoposide and doxorubicin. HCT116 p53^+/+ cells were treated for 48 hours with increasing concentrations of etoposide (0.38 to 3.00 μM) or doxorubicin (9.38 to 75.0 nM) in the presence of a very low concentration (between GI5 to GI10; 4 μM) of SLMP53-1 or DMSO only. The effect of the compounds on cell growth was analyzed following 48 hours incubation, using the sulforhodamine B (SRB) assay. Results are mean±SEM of three to four independent experiments.\nIt was also investigated if SLMP53-1 increased the sensitivity of HCT116 p53^+/+ cells to the effects of various concentrations of the conventional chemotherapeutic drugs, etoposide (0.38 to 3.00 μM) and doxorubicin (9.38 to 75 nM). For that, a low concentration of SLMP53-1 (approximately the GI5 to GI10 concentration; 4 μM; without significant anti-proliferative effect on tumor cells) was used."}, "[5]": {"target": "T1, mutant p53 R280K (Homo sapiens, UniProt P04637, R280K)", "T1 construct": "expressed in transfected cells", "experiment": "reactivation of mutant p53 in yeast (growth, CFU), R280K", "type": "cell-based", "settings": "10 μM; yeast expressing R280K; 44 hours", "description": "(§1) FIG. 6 illustrates that SLMP53-1 reactivates mutant p53s R273H, R175H and R280K in yeast. Yeast cells expressing R273H, R280K, Y220C or R175H were incubated in selective medium with 10 μM of SLMP53-1, 10 μM of CP-31398 (for R273H), 10 μM of PRIMA-1 (for R175H and R280K), 50 μM of PhiKan 083 (for Y220C) or DMSO only, for 44 hours. CP-31398, PRIMA-1 and PhiKan 083 were used as positive controls. Results are plotted setting as 100% growth the number of CFU obtained in the presence of DMSO only.\n(§2) It is also shown that SLMP53-1 can reactivate some mutant p53 forms, particularly R273H, R280K and R175H (FIG. 6)."}, "[6]": {"target": "T2, mutant p53 R175H (Homo sapiens, UniProt P04637, R175H)", "T2 construct": "expressed in transfected cells", "experiment": "reactivation of mutant p53 in yeast (growth, CFU), R175H", "type": "cell-based", "settings": "10 μM; yeast expressing R175H; 44 hours", "description": "as §1, §2"}, "[7]": {"system": "MDA-MB-231 breast tumor cells", "experiment": "Western blot of p53 and p53-target proteins, PARP cleavage, MDA-MB-231", "type": "cell-based, human", "settings": "16.6 μM (GI50), 24/48 hours", "description": "FIG. 7 illustrates that SLMP53-1 increases the levels of p53 and of proteins encoded by p53-target genes in MDA-MB-231 breast tumor cells."}, "[8]": {"system": "MDA-MB-231 cells", "experiment": "apoptosis by flow cytometry (FITC-Annexin V and propidium iodide), MDA-MB-231", "type": "cell-based, human", "settings": "GI50, 24 hours", "description": "Apoptosis was analyzed by flow cytometry using FITC-Annexin V and propidium iodide. The effect of compounds was analyzed after 24 hours treatment using the concentration of GI50. Histograms represent one of two independent experiments; quantification of cells in apoptosis represents the mean±S.E.M. of two independent experiments."}, "[9]": {"system": "human lymphocytes", "experiment": "cytokinesis-block micronucleus assay", "type": "cell-based", "description": "Concerning the genotoxicity assays, three concentrations (15.5, 7.25 and 1.55 μM) of SLMP53-1 were tested, in vitro, for potential genotoxicity to human lymphocytes. For that purpose, the cytokinesis-block micronucleus assay (an assay routinely used in mutagen/carcinogen screening programs) was used, which measures the ability of genotoxic agents to induce both chromosomal damage (clastogenic) and/or spindle dysfunction (aneugenic) effects."}, "[10]": {"settings": "HCT116 p53^+/+ vs HCT116 p53^−/−"}},
  "note": "Entries after “also recorded” stand apart in the source; their conditions may differ.",
  "data": [
    {"smiles": "C[C@]12OC[C@H](Cc3c[nH]c4ccccc34)N1C(=O)c1ccccc12", "note": "[SLMP53-1]", "values": [
      {"measurement": "GI50 in HCT116 p53^+/+ cells lower than in HCT116 p53^−/− cells", "setting": "[1]; [10]", "value": 2, "unit": "fold"},
      {"measurement": "p53 dependence of anti-proliferative effect", "setting": "[1]; [10]", "value": "p53-dependent anti-proliferative effect"},
      {"measurement": "GI50", "setting": "[1]; Homo sapiens, HCT-116, HCT116 p53^+/+, 48 hours incubation, SRB, mean±S.E.M.", "value": "15.5 ± 1.6", "unit": "µM"},
      {"measurement": "protein levels of p53 and of MDM2, p21, PUMA and BAX", "setting": "[2]; 15.5 μM (GI50), 16 and 24 hours", "value": "increased"},
      {"measurement": "PARP cleavage", "setting": "[2]; 24 hours", "value": "led to PARP cleavage"},
      {"measurement": "cell cycle progression", "setting": "[3]", "value": "G0/G1-phase cell arrest"},
      {"measurement": "decrease of tumor cell growth", "setting": "[4]; 9.38 nM doxorubicin in the presence of 4 μM of SLMP53-1, HCT116 p53^+/+", "value": 15, "unit": "%"},
      {"measurement": "etoposide/doxorubicin-induced growth inhibition", "setting": "[4]; 4 μM SLMP53-1, etoposide 0.75 and 3.00 μM, doxorubicin 9.38, 37.5 and 75 nM, 48 hours", "value": "increased"},
      {"measurement": "yeast growth inhibition", "setting": "[5]", "value": "significant growth inhibition"},
      {"measurement": "yeast growth inhibition", "setting": "[6]", "value": "significant growth inhibition"},
      {"measurement": "PARP cleavage", "setting": "[7]", "value": "lead to PARP cleavage"},
      {"measurement": "levels of p53 and of BAX, PUMA and p21", "setting": "[7]", "value": "increased"},
      {"measurement": "apoptosis", "setting": "[8]", "value": "induces late apoptosis; also recorded: apoptotic cell death"},
      {"measurement": "cytotoxic and genotoxic effects", "setting": "[9]", "value": "no cytotoxic and genotoxic effects were observed"},
      {"measurement": "mutagenic potential (micronuclei frequency vs negative control)", "setting": "[9]; 15.5, 7.25 and 1.55 μM, human lymphocytes, in vitro", "value": "does not possess mutagenic potential"}
    ]}
  ]
}
